Reference: the supplement of paper PMC10307832

How the values were obtained:
Assay in all cases: relative viability (nuclei count vs DMSO), 5 days (fraction); higher = more cells survive
[1] = compound: C[C@]1(c2nc3c(C(N)=O)cccc3[nH]2)CCCN1 [Veliparib] + Cc1nc(NC(=O)N2CCC[C@H]2C(N)=O)sc1-c1ccnc(C(C)(C)C(F)(F)F)c1 [Alpelisib] (partner 2 µM)
How it was run: (§1)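 Relative viability divides the nuclei count in treated wells by that in vehicle wells. Lung cancer cell lines were seeded in 1536-well plates, dosed by pin tool the next day, and fixed and stained after 5 days in one step with final 0.05% Triton X-100, 1% formaldehyde and 1 ug/ml Hoechst. Dosing was a single drug or a fixed anchor-drug dose plus five library-drug doses (not always all listed) in √10 steps, and values are medians of duplicate plates imaged at 4×.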

[2] = compound: C[C@]1(c2nc3c(C(N)=O)cccc3[nH]2)CCCN1 [Veliparib] + Cc1cc(Nc2cc(N3CCN(C)CC3)nc(Sc3ccc(NC(=O)C4CC4)cc3)n2)n[nH]1 [Tozasertib] (partner 0.1 µM)
How it was run: as §1

[3] = compound: C[C@]1(c2nc3c(C(N)=O)cccc3[nH]2)CCCN1 [Veliparib] + O=C(c1cc(Cc2n[nH]c(=O)c3ccccc23)ccc1F)N1CCN(C(=O)C2CC2)CC1 [Olaparib] (partner 8 µM)
How it was run: as §1

[4] = compound: COC1=CC=C(C=C1)CN2C=CC3=C2C=C(C=C3)C(=O)NO + CS(=O)(=O)CCNCc1ccc(-c2ccc3ncnc(Nc4ccc(OCc5cccc(F)c5)c(Cl)c4)c3c2)o1 [Lapatinib] (partner 2 µM)
How it was run: as §1

| Cell Line | relative viability ([1]; first compound 0.02 µM) | relative viability ([1]; first compound 0.06325 µM) | relative viability ([1]; first compound 0.2 µM) | relative viability ([1]; first compound 0.6325 µM) | relative viability ([1]; first compound 2 µM) | relative viability ([2]; first compound 0.02 µM) | relative viability ([2]; first compound 0.06325 µM) | relative viability ([2]; first compound 0.2 µM) | relative viability ([2]; first compound 0.6325 µM) | relative viability ([2]; first compound 2 µM) | relative viability ([3]; first compound 0.02 µM) | relative viability ([3]; first compound 0.06325 µM) | relative viability ([3]; first compound 0.2 µM) | relative viability ([3]; first compound 0.6325 µM) | relative viability ([3]; first compound 2 µM) | relative viability ([4]; first compound 0.253 µM) | relative viability ([4]; first compound 0.8 µM) | relative viability ([4]; first compound 2.53 µM) | relative viability ([4]; first compound 8 µM) | relative viability ([4]; first compound 0.08 µM) |
| --- | --- | --- | --- | --- | --- | --- | --- | --- | --- | --- | --- | --- | --- | --- | --- | --- | --- | --- | --- | --- |
| HCC-78 | 0.455 | 0.406 | 0.387 | 0.36 | 0.322 | 0.402 | 0.381 | 0.404 | 0.35 | 0.404 | 0.755 | 0.745 | 0.82 | 0.742 | 0.806 | 0.706 | 0.731 | 0.715 | 0.733 |  |
| HCC-366 | 0.452 | 0.234 | 0.365 | 0.384 | 0.411 | 0.159 | 0.147 | 0.108 | 0.137 | 0.112 | 0.431 | 0.374 | 0.401 | 0.303 | 0.353 | 0.992 | 1.06 | 1.04 | 1.07 |  |
| HCC-827 | 0.922 | 1.02 | 0.986 | 0.971 | 0.899 | 0.436 | 0.443 | 0.434 | 0.376 | 0.398 | 0.629 | 0.634 | 0.561 | 0.585 | 0.615 | 0.212 | 0.168 | 0.181 | 0.178 | 0.189 |
| HOP-62 | 1.11 | 0.928 | 1.15 | 0.836 | 0.785 | 0.327 | 0.382 | 0.419 | 0.328 | 0.39 |  | 0.347 | 0.364 | 0.342 | 0.383 | 1.1 | 1.08 | 0.997 | 0.973 | 0.225 |
| IA-LM | 0.796 | 0.764 | 0.684 | 0.503 | 0.968 |  |  |  |  |  | 0.896 | 0.702 | 0.743 | 0.678 | 0.74 | 0.662 | 0.952 | 0.966 | 0.541 | 0.551 |
| LC-2-ad |  | 0.783 | 0.846 | 0.926 | 0.897 |  | 0.456 | 0.486 | 0.417 | 0.445 | 0.744 | 0.68 | 0.662 | 0.756 | 0.681 | 0.948 | 0.972 | 0.931 | 0.92 | 0.259 |
| LCLC-97TM1 | 0.263 | 0.271 | 0.258 |  | 0.232 | 0.231 | 0.237 | 0.204 | 0.197 | 0.253 | 0.433 | 0.475 | 0.439 | 0.233 | 0.527 | 0.872 | 1.26 | 0.911 | 0.806 |  |
| LCLC-103H | 1.13 | 0.896 | 0.936 | 1.06 | 0.949 | 0.528 | 0.339 | 0.463 | 0.443 | 0.485 | 0.753 | 0.74 | 0.826 | 0.75 | 0.745 |  |  |  |  |  |
| LK-2 |  | 1.01 | 1.38 | 0.996 | 1.1 |  | 0.152 | 0.159 | 0.221 | 0.18 | 0.696 | 0.629 | 0.659 | 0.757 | 0.85 | 0.909 | 0.932 | 0.955 | 0.82 |  |
| LOU-NH91 | 0.698 | 0.72 | 0.76 | 0.706 | 0.748 | 0.647 | 0.684 | 0.729 | 0.584 | 0.746 | 0.882 | 0.901 | 0.978 | 0.876 | 0.95 | 0.745 | 0.825 | 0.733 | 0.725 | 0.561 |
| LU99A | 0.504 | 0.459 | 0.544 | 0.509 | 0.569 | 0.328 | 0.271 | 0.239 | 0.245 | 0.279 | 0.252 | 0.266 | 0.257 | 0.265 | 0.31 | 0.92 | 0.961 | 0.957 | 0.891 |  |
| NCI-H441 | 0.735 | 0.886 | 0.716 | 0.737 | 0.671 | 0.633 | 0.608 | 0.529 | 0.541 | 0.683 | 0.691 | 0.637 | 0.573 | 0.598 | 0.595 |  |  |  |  |  |
| NCI-H522 |  |  |  |  |  | 0.628 | 0.579 | 0.508 | 0.598 | 0.545 | 0.678 | 0.593 | 0.667 | 0.57 | 0.566 |  |  |  |  |  |
| NCI-H1299 | 1.04 | 0.992 | 1.03 | 0.985 | 1.05 |  |  |  |  |  | 1.03 | 0.949 | 0.925 | 0.963 | 1.03 | 0.979 | 0.969 | 0.934 | 0.923 | 0.959 |
| NCI-H1563 | 0.981 | 0.965 | 1 | 0.826 | 1.04 |  |  |  |  |  |  |  |  |  |  | 0.939 | 0.953 | 0.862 | 0.748 | 0.769 |
| NCI-H1623 |  |  |  |  |  |  | 0.439 | 0.428 | 0.461 | 0.444 |  |  |  |  |  |  |  |  |  |  |
| NCI-H1648 |  |  |  |  |  | 0.723 | 0.469 | 0.383 | 0.405 | 0.363 | 0.948 |  |  | 0.7 | 0.919 |  |  |  |  |  |
| NCI-H1650 |  |  |  |  |  |  | 0.441 | 0.486 | 0.448 | 0.526 | 0.918 | 0.679 | 0.729 | 0.707 | 0.757 | 0.76 | 0.847 | 0.86 | 0.451 | 0.254 |
| NCI-H1703 | 0.245 | 0.303 | 0.316 | 0.35 | 0.368 |  |  |  |  |  | 0.514 | 0.292 | 0.397 | 0.56 | 0.501 | 1.16 | 1.1 | 1.07 | 0.873 | 0.691 |
| NCI-H1792 | 0.678 | 0.592 | 0.799 | 0.65 | 0.645 |  |  |  |  |  | 0.693 | 0.311 | 0.68 | 0.411 | 0.397 | 0.906 | 0.824 | 0.915 | 0.836 | 0.867 |
| NCI-H2342 |  |  |  |  |  | 0.498 | 0.573 | 0.421 | 0.504 | 0.508 | 0.383 | 0.461 | 0.469 | 0.41 | 0.474 |  |  |  |  |  |
| SW 900 |  |  |  |  |  |  |  | 0.636 | 0.533 | 0.586 |  | 0.724 | 0.939 | 0.722 | 0.818 |  |  |  |  |  |
